Source: patent US20250129051A1, “PARP1 INHIBITORS AND USES THEREOF” (Gilead Sciences, Inc., priority 2023, published 2025)

Experiments:
Type in all cases: cell-based
DLD-1 BRCA2 (−/−) cells = experiment: Cell growth inhibition assay (CellTiter-Glo), DLD-1 BRCA2 (−/−); settings: Homo sapiens, 168 h, 7 days, CellTiter Glo 2.0
Excerpt: (§1) The objective of this study was to evaluate the effect of a compound disclosed herein on cell proliferation through the cell viability assay in DLD-1 BRCA2 (−/−) and parental isogenic pair and MDA-MB-436 (mutated BRCA1) cell lines. The CellTiter-Glo (CTG) based cell viability assay was designed to determine the number of viable cells in the culture because of compound effect, by quantifying adenosine triphosphate (ATP), which indicates the presence of metabolically active cells.
(§2) DLD-1 BRCA2 (−/−) and parental isogenic pair were cultured in RPMI 1640 supplemented with 10% fetal bovine serum (FBS), and MDA-MB-436 cells were cultured in Dulbecco's Modified Eagle Medium (DMEM) supplemented with 10% FBS. Both were cultured at 37° C. with 5% CO2. Compounds were distributed to the 384 well plate (Corning, 3764) using Echo acoustic liquid handler to form a 1:3 serially diluted final concentration with top dose of 10 or 30 μM. The cells were seeded into the plate in the density of 50 cells/well (DLD-1 parental), 200 cells/well (DLD-1 BRCA2−/−), or 500 cells/well (MDA-MB-436). After a short spin, the cells were cultured in a well moisturized incubator at 37° C. with 5% CO2 for 7 days without disturbance. The cell viability was measured by CellTiter Glo 2.0 assay kit (Promega, G9243), and growth inhibition rate was calculated and plotted against final compound concentration, and the data were fitted in Xfit to generate IC50.

DLD-1 parental cells = experiment: Cell growth inhibition assay (CellTiter-Glo), DLD-1 parental; settings: Homo sapiens, 168 h, 7 days, CellTiter Glo 2.0
Excerpt: as §1, §2

[1] = tested on: MDA-MB-436 (mutated BRCA1) cells; experiment: Cell growth inhibition assay (CellTiter-Glo), MDA-MB-436; settings: Homo sapiens, 168 h; MDA-MB-436 cells, 7 days, CellTiter Glo 2.0
Excerpt: as §1, §2

CNC(=O)c1ccc(O[C@H]2CN(Cc3ccc4nc(C)c(=O)[nH]c4c3F)[C@@H]2C)c(F)n1 [Compound 5, 6-fluoro-5-(((2R,3S)-1-((5-fluoro-2-methyl-3-oxo-3,4-dihydroquinoxalin-6-yl)methyl)-2-methylazetidin-3-yl)oxy)-N-methylpicolinamide]
IC50 (DLD-1 BRCA2 (−/−) cells): 67 nM | IC50 (DLD-1 parental cells): > 10000 nM | IC50 [1]: 23 nM

Cc1nc2ccc(CN3C[C@H](Oc4ccc(C(=O)NC5CC5)nc4F)[C@H]3C)c(F)c2[nH]c1=O [Compound 6, N-cyclopropyl-6-fluoro-5-(((2R,3S)-1-((5-fluoro-2-methyl-3-oxo-3,4-dihydroquinoxalin-6-yl)methyl)-2-methylazetidin-3-yl)oxy) picolinamide]
IC50 (DLD-1 BRCA2 (−/−) cells): 28 nM | IC50 (DLD-1 parental cells): > 10000 nM | IC50 [1]: 8.9 nM

Cc1nc2ccc(CN3C[C@H](Oc4ccc(C#N)nc4F)[C@H]3C)c(F)c2[nH]c1=O [Compound 7, 6-fluoro-5-(((2R,3S)-1-((5-fluoro-2-methyl-3-oxo-3,4-dihydroquinoxalin-6-yl)methyl)-2-methylazetidin-3-yl)oxy) picolinonitrile]
IC50 (DLD-1 BRCA2 (−/−) cells): > 1000 nM | IC50 (DLD-1 parental cells): > 10000 nM | IC50 [1]: > 1000 nM
